A word on the IC50: it is the point on the concentration scale where inhibition reaches its midpoint.

This note sets out measurements from ChEMBL document CHEMBL1129301, “Synthesis and biological evaluation of DL-4,4-difluoroglutamic acid and DL-gamma,gamma-difluoromethotrexate” (J Med Chem, 1996).

For assay [1], the system named is CCRF-CEM. As to the kind of experiment: cells. The conditions noted are these: Homo sapiens, 3 h.
Assay [2] deals with CCRF-CEM. As to the kind of experiment: Growth inhibition of CCRF-CEM subline resistant to MTX solely as a result of a 25-fold increase in wild-type DHFR activity during continuous (120 h) exposure to MTX. The conditions noted are these: Homo sapiens, read-out: ED50 (the source's name). The assay is classed as functional.
In assay [3] the test system is CCRF-CEM. Kind of assay: Growth inhibition of CCRF-CEM subline resistant to MTX solely as a result of decreased MTX influx during continuous (120 h) exposure. It is filed as functional. The conditions noted are these: Homo sapiens, read-out: ED50 (the source's name).
For assay [4], the system named is CCRF-CEM. As to the kind of experiment: Compound was evaluated for growth inhibition of parental CCRF-CEM during continuous (120 h) exposure to MTX. It is filed as functional. The settings on record: Homo sapiens, read-out: ED50 (the source's name).
The subject of assay [5] is CCRF-CEM. Kind of assay: Growth inhibition of CCRF-CEM subline resistant to MTX solely as a result of decreased polyglutamylation during continuous (120 h) exposure. The assay is classed as functional. The settings on record: Homo sapiens, read-out: ED50 (the source's name).
Assay [6] concerns the target T1, Dihydrofolate reductase (Homo sapiens, UniProt P00374).
T1 sequence (P00374 whole entry): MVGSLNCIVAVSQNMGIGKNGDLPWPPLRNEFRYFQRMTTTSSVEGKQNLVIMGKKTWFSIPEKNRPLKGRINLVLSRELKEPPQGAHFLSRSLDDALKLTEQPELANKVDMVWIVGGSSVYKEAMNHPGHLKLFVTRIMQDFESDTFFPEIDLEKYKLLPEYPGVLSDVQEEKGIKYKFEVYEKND
As to the kind of experiment: Inhibitory activity against purified human dihydrofolate reductase (DHFR) in human leukemia cells (CCRF-CEM).

In assay [1], `Nc1nc(N)c2nc(CNc3ccc(C(=O)N[C@@H](CCC(=O)O)C(=O)O)cc3)cnc2n1` [AMINOPTERIN] showed an IC50 of 3 µM.
Turning to `CN(Cc1cnc2nc(N)nc(N)c2n1)c1ccc(C(=O)N[C@@H](CCC(=O)O)C(=O)O)cc1` [METHOTREXATE], the EC50 turned out to be 0.655 µM in assay [2] and 2.55 µM in assay [3].
As to `CN(Cc1cnc2nc(N)nc(N)c2n1)c1ccc(C(=O)NC(CC(F)(F)C(=O)O)C(=O)O)cc1` (stereo not drawn), the EC50 in assay [4] amounted to 0.029 µM; in assay [2] it was 0.7 µM; in assay [3] it was 2.15 µM; in assay [5] it was 0.0243 µM. The same compound came in with a concentration for half-maximal inhibition (IC50) in assay [6] of 1.53 µM.
